The test system of assay [1] is BaF3. The experiment in a line: Antiproliferative activity against mouse BaF3 cells expressing EGFR del19/T790M/C797S triple mutant assessed as cell growth inhibition measured after 72 hrs by CCK8 assay. It is filed as functional, cell-based. The settings on record: BaF3, 72 h.
The subject of assay [2] is BaF3. The experiment in a line: Induction of EGFR del19/T790M/C797S triple mutant degradation in mouse BaF3 cells at 0.1 uM measured after 3 hrs by Western blot analysis relative to control. It is filed as cell-based.
The test system of assay [3] is BaF3. The experiment in a line: Induction of EGFR del19/T790M/C797S triple mutant degradation in mouse BaF3 cells at 0.01 uM measured after 3 hrs by Western blot analysis relative to control. The assay is classed as cell-based.
Assay [4] concerns BaF3. The experiment in a line: Induction of EGFR del19/T790M/C797S triple mutant degradation in mouse BaF3 cells at 0.01 to 0.1 uM measured after 3 hrs by Western blot analysis. It is filed as cell-based. As to conditions: dose 0.01-0.1 µM.
Assay [5] relates to BaF3. The experiment in a line: Induction of EGFR del19/T790M/C797S triple mutant degradation in mouse BaF3 cells at 0.1 uM preincubated with compound for 3 hrs followed by compound washout and measured after 24 hrs by Western blot analysis. The assay is classed as cell-based.
Assay [6] has as its system BaF3. The experiment in a line: Induction of EGFR del19/T790M/C797S triple mutant degradation in mouse BaF3 cells at 0.1 uM preincubated for 3 hrs with VHL ligand 5 followed by compound addition and measured after 3 hrs by Western blot analysis. The assay is classed as cell-based.
In assay [7] the test system is BaF3. The experiment in a line: Inhibition of ERK phosphorylation in mouse BaF3 cells expressing EGFR del19/T790M/C797S triple mutant after 3 hrs by Western blot analysis. It is filed as cell-based. The settings on record: dose 0.001-10 µM.
The subject of assay [8] is Epidermal growth factor receptor (Homo sapiens), P00533 [L858R,T790M]. The experiment in a line: Induction of EGFR L858R/T790M mutant degradation in human NCI-H1975 cells assessed as decrease in EGFR protein level at 0.005 to 0.5 uM measured after 3 hrs by Western blot assay. As to conditions: dose 0.005-0.5 µM. It is filed as cell-based.
Assay [9] deals with EML4-ALK (Homo sapiens) (UniProt Q9UM73+Q9HC35). The experiment in a line: Induction of EML4-ALK fusion protein degradation in mouse BaF3 cells at 0.001 to 10 uM after 3 hrs by Western blot analysis. It is filed as cell-based. As to conditions: dose 0.001-10 µM.
EML4-ALK (Homo sapiens), sequence (Q9HC35 whole entry partner, the tested form may be a part): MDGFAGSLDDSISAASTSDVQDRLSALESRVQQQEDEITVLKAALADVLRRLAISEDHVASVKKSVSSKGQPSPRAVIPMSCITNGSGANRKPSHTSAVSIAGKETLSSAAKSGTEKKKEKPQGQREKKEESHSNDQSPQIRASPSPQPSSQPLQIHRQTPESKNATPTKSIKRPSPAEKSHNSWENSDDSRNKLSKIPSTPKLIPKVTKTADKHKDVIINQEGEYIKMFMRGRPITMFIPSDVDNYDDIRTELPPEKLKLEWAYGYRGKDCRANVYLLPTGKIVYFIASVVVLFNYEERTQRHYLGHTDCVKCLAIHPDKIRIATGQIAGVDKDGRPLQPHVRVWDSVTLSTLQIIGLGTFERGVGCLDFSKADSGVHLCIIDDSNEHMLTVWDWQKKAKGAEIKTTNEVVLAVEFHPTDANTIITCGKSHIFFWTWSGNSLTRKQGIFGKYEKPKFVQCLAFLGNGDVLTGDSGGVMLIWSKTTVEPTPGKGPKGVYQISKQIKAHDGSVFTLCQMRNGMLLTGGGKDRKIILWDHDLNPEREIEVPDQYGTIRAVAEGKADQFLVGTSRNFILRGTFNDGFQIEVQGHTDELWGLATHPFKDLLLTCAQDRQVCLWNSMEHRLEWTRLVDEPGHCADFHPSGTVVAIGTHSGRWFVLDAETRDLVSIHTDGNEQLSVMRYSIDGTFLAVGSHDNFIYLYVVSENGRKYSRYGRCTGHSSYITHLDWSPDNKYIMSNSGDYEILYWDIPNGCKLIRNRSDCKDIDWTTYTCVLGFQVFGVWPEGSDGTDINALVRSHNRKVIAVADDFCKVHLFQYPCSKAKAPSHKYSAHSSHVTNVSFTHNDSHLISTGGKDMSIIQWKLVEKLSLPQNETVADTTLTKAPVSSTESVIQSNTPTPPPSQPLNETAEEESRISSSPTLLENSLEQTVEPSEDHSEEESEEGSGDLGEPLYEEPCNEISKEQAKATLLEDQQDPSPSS
EML4-ALK (Homo sapiens), sequence (Q9UM73 19-1620 limits assumed): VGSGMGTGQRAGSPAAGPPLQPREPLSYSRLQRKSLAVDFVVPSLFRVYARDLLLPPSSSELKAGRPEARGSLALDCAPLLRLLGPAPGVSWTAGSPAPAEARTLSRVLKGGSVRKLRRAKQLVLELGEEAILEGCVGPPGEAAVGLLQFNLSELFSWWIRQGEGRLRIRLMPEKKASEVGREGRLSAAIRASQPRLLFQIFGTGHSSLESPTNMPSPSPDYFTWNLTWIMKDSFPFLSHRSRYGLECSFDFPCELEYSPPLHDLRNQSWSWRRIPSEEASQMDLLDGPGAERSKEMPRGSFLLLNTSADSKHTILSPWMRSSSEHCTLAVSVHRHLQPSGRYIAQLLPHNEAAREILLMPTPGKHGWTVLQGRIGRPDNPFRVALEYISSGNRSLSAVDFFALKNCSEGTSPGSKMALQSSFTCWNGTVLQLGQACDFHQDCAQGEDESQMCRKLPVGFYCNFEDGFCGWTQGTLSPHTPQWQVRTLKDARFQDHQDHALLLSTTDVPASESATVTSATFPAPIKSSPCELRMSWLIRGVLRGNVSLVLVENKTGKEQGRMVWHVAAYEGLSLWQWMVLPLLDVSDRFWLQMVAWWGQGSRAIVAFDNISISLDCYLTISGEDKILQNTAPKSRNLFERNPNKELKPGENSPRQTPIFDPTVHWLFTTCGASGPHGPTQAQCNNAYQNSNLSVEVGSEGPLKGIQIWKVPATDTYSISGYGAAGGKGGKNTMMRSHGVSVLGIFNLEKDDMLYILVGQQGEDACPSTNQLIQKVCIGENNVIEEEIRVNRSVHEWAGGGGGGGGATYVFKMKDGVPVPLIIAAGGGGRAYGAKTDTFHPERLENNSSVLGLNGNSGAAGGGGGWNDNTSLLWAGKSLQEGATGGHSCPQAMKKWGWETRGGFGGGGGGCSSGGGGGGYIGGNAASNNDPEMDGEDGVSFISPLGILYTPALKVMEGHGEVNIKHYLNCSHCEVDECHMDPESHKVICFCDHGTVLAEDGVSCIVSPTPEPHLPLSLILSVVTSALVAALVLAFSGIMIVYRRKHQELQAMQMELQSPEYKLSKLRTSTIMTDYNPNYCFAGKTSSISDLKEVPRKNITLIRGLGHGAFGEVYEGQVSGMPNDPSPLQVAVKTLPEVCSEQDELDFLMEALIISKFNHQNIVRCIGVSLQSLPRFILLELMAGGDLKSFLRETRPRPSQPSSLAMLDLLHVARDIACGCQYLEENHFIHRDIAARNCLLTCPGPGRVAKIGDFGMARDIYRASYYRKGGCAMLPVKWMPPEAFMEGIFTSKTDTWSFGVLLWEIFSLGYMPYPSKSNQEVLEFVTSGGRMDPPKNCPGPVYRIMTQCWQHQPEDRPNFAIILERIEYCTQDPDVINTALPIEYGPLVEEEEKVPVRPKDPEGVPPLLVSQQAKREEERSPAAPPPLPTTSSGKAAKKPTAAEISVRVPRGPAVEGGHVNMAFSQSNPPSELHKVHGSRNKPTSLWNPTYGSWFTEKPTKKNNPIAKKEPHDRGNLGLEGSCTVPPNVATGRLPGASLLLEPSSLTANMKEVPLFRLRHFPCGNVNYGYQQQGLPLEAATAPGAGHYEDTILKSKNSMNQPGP
The test system of assay [10] is Epidermal growth factor receptor (Homo sapiens), P00533 [UNDEFINED MUTATION]. The experiment in a line: Induction of EGFR del19 mutant degradation in human HCC827 cells assessed as decrease in EGFR protein level at 0.005 to 0.5 uM measured after 3 hrs by Western blot assay. The settings on record: dose 0.005-0.5 µM. It is filed as cell-based.
The target of assay [11] is RAC-alpha serine/threonine-protein kinase (Mus musculus) (UniProt P31750). The experiment in a line: Inhibition of Akt phosphorylation in mouse BaF3 cells expressing EGFR del19/T790M/C797S triple mutant after 3 hrs by Western blot analysis. The assay is classed as cell-based. As to conditions: dose 0.001-10 µM.
RAC-alpha serine/threonine-protein kinase (Mus musculus), sequence (P31750 whole entry): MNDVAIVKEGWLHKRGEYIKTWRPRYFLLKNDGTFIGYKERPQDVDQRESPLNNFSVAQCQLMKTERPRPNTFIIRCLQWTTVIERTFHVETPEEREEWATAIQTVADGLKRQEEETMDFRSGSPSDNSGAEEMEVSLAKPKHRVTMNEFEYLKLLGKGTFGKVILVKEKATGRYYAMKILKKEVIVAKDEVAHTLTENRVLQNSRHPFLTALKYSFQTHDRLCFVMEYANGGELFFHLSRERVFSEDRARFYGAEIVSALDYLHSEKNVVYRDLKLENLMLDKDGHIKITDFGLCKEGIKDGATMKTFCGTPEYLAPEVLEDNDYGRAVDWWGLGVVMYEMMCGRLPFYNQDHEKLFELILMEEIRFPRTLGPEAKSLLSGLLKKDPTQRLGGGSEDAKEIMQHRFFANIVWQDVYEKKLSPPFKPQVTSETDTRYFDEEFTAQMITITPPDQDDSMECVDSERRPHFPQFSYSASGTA
For assay [12], the system named is HCC827. The experiment in a line: Antiproliferative activity against human HCC827 cells expressing EGFR del19 mutant assessed as cell growth inhibition after 72 hrs by CCK-8 assay. The assay is classed as functional, cell-based. As to conditions: HCC827, 72 h.
In assay [13] the target is Epidermal growth factor receptor (Homo sapiens) (UniProt P00533). The experiment in a line: Induction of EGFR degradation in human A-431 cells assessed as decrease in EGFR protein level at 0.005 to 0.5 uM measured after 3 hrs by Western blot assay. It is filed as cell-based. The settings on record: dose 0.005-0.5 µM.
In assay [14] the test system is A-431. The experiment in a line: Antiproliferative activity against human A-431 cells expressing wild-type EGFR assessed as cell growth inhibition after 72 hrs by CCK-8 assay. The assay is classed as functional, cell-based. As to conditions: A-431, 72 h.
Assay [15] concerns BaF3. The experiment in a line: Induction of EGFR del19/T790M/C797S triple mutant degradation in mouse BaF3 cells after 3 hrs by immunoblotting analysis. It is filed as cell-based. As to conditions: dose 0.001-10 µM.
For assay [16], the system named is NCI-H3255. The experiment in a line: Antiproliferative activity against human NCI-H3255 cells expressing L858R mutant assessed as cell growth inhibition after 72 hrs by CCK-8 assay. As to conditions: NCI-H3255, 72 h. It is filed as functional, cell-based.
The subject of assay [17] is BaF3. The experiment in a line: Induction of EGFR del19/T790M/C797S triple mutant degradation in mouse BaF3 cells at 1 uM after 3 hrs by immunoblotting analysis relative to control. The assay is classed as cell-based.
Assay [18] concerns Epidermal growth factor receptor (Homo sapiens), P00533 [L858R]. The experiment in a line: Induction of EGFR L858R mutant degradation in human […] cells assessed as decrease in EGFR protein level at 0.005 to 0.5 uM measured after 3 hrs by Western blot assay. It is filed as cell-based. As to conditions: NCI-H3255, dose 0.005-0.5 µM.
Assay [19] relates to BaF3. The experiment in a line: Induction of EGFR del19/T790M/C797S triple mutant degradation in mouse BaF3 cells at 0.1 uM measured after 3 to 24 hrs by Western blot analysis. The settings on record: time 3-24 hrs. The assay is classed as cell-based.
For assay [20], the system named is NCI-H1975. The experiment in a line: Antiproliferative activity against human NCI-H1975 cells expressing EGFR L858R/T790M double mutant assessed as cell growth inhibition after 72 hrs by CCK-8 assay. It is filed as functional, cell-based. As to conditions: NCI-H1975, 72 h.
The subject of assay [21] is BaF3. The experiment in a line: Induction of EGFR del19/T790M/C797S triple mutant degradation in mouse BaF3 cells at 0.1 uM preincubated for 2 hrs with proteosome inhibitor MG132 followed by compound addition and measured after 3 hrs by Western blot analysis. It is filed as cell-based.
Assay [22] concerns BaF3. The experiment in a line: Induction of EGFR del19/T790M/C797S triple mutant degradation in mouse BaF3 cells at 0.1 uM preincubated for 3 hrs with EGFR inhibitor 3 followed by compound addition and measured after 3 hrs by Western blot analysis. It is filed as cell-based.

Drawing on ChEMBL document CHEMBL5032540, “Design, Synthesis, and Biological Evaluation of Novel EGFR PROTACs Targeting Del19/T790M/C797S Mutation” (ACS Med Chem Lett, 2022), this text covers IC50, Activity and inhibition for seven compounds.

Calls of active or inactive are those of the source. No cut-off for these calls is given here.

As for `COc1cc(C2CCN(CCCCCC(=O)N[C@H](C(=O)N3C[C@H](O)C[C@H]3C(=O)N[C@@H](C)c3ccc(-c4scnc4C)cc3)C(C)(C)C)CC2)ccc1Nc1ncc(Cl)c(Nc2ccccc2NS(C)(=O)=O)n1`, the IC50 in assay [1] stood at 370 nM. In addition, the Activity amounted to 35.2% in [2] and 14% in assay [3].
`COc1cc(N2CCN(CCCCCCCC(=O)N[C@H](C(=O)N3C[C@@H](O)C[C@H]3C(=O)N[C@@H](C)c3ccc(-c4scnc4C)cc3)C(C)(C)C)CC2)ccc1Nc1ncc(Cl)c(Nc2ccccc2P(C)(C)=O)n1`: in [4], the result was inactive.
Regarding `COc1cc(N2CCN(CCCC(=O)N[C@H](C(=O)N3C[C@H](O)C[C@H]3C(=O)N[C@@H](C)c3ccc(-c4scnc4C)cc3)C(C)(C)C)CC2)ccc1Nc1ncc(Cl)c(Nc2ccccc2P(C)(C)=O)n1`, the IC50 in [1] is 370 nM. Moreover, the results for the Activity in [2] and in assay [3] were 22.7% and 6.2%, respectively.
For `COc1cc(N2CCN(CCCCCC(=O)N[C@H](C(=O)N3C[C@H](O)C[C@H]3C(=O)N[C@@H](C)c3ccc(-c4scnc4C)cc3)C(C)(C)C)CC2)ccc1Nc1ncc(Cl)c(Nc2ccccc2P(C)(C)=O)n1`, in assay [1], the IC50 was 50 nM. For the same compound, the Activity is 75.4% in [2] and 53.7% in [3].
In the case of `COc1cc(N2CCN(CCCCCCCC(=O)N[C@H](C(=O)N3C[C@H](O)C[C@H]3C(=O)N[C@@H](C)c3ccc(-c4scnc4C)cc3)C(C)(C)C)CC2)ccc1Nc1ncc(Cl)c(Nc2ccccc2P(C)(C)=O)n1`, the outcome in [5], in assay [10] and in assay [19] was Active. Besides, the IC50 was found to be 20 nM in assay [1]; 229 nM in [12]; 526 nM in assay [14]; 604 nM in [16]; 1130 nM in [20]. Also, the outcome in assay [6], in assay [8], in assay [9], in [13], in assay [18] and in [21] was inactive. For the same compound, the result in assay [22] was inactive. The inhibition entry in assay [7] and in assay [11] was “Dose-Dependent Effect” in each case. Also, the Activity result in [15] was “Dose-Dependent Effect”; in assay [2], 79.1%; in assay [17], 49.6%; in assay [3], 52%.
Regarding `COc1cc(N2CCN(CCCCCC(=O)N[C@H](C(=O)N3C[C@H](O)C[C@H]3C(=O)N[C@@H](C)c3ccc(-c4scnc4C)cc3)C(C)(C)C)CC2)ccc1Nc1ncc(Cl)c(Nc2ccccc2S(=O)(=O)C(C)C)n1`, the 50% inhibitory concentration (IC50) in assay [1] was determined as 240 nM. For the same compound, the results for the Activity in [2] and in assay [3] were 56.9% and 48.5%, respectively.
Regarding `COc1cc(C2CCN(CCCCCC(=O)N[C@H](C(=O)N3C[C@H](O)C[C@H]3C(=O)N[C@@H](C)c3ccc(-c4scnc4C)cc3)C(C)(C)C)CC2)ccc1Nc1ncc(Cl)c(Nc2ccccc2N(C)S(C)(=O)=O)n1`, the IC50 in assay [1] stood at 70 nM. Further, the figures for the Activity in assay [2] and in [3] were 74.1% and 58.4%, respectively.
